“Also recorded” adds a separate entry of the source.
Columns and labels:
[1] = tested on: C57BL/6 mice; assay: Oral tolerance and delayed type hypersensitivity (DTH) response to Ova; type: in vivo
Description: Antibiotic treatment: Mice were given a combination of antibiotics (Abx) ampicillin (1 g/L), metronidazole (1 g/L), neomycin (1 g/L), and vancomycin (500 mg/L) in drinking water for the time periods outlined in the figure legends.
EGFRi treatment: Mice were injected with 500 μg/kg tyrphostin AG1478 (an inhibitor of EGFR phosphorylation) in the neonatal, post-neonatal, or weaned phase on DOLs noted in the text or figure legends.
Oral tolerance and Delayed Type Hypersensitivity Responses: Mice, and/or nursing dams, when treated prior to weaning, were given Ova 20 g/L in drinking water, or drinking water alone for the intervals defined in the figure legend. Four weeks and six weeks following dietary Ova exposure mice were immunized subcutaneously with 100 μg Ova in incomplete Freund's Adjuvant (Sigma Aldrich). Two weeks after the last immunization mice were challenged with 20 μg Ova in the footpad, body temperature monitored for one hour, and the increase in footpad thickness evaluated using measurements taken with micrometer calipers taken before and 24 hours after challenge. To directly evaluate colonic antigen delivery and blockade of GAPs in the development of tolerance, enemas containing Ova 10 μg/gm body weight with or without 10 μg EGF were administered intrarectally every other day five times from DOL 14 to 22 (post-neonatal phase) or DOL 56 to 64 (adult). Mice were rested three weeks, and then systemically immunized and challenged in the footpad as above.

[2] = tested on: CBir1 T cells; assay: Adoptive transfer of CBir1/DP1 TCR transgenic T cells; type: in vivo, mice
Description: (§1) Isolation of cellular populations and flow cytometry: Small intestines or colons were harvested, rinsed with PBS, and Peyer's patches or colonic patches were removed. Epithelial cellular populations were released by incubating for 15 min three times in a 37° C. rotating incubator in HBSS media (BioWhittaker, Walkersville, Md.) containing 5 mM EDTA as previously described. Isolation of splenic, MLN and lamina propria (LP) cellular populations was performed as previously described. In some experiments, single cell suspensions of MLN were cultured in cell culture media for three days as previously described. The first wash of HBSS+EDTA was used to isolate goblet cells as below. SI and colonic LP-MNPs were identified as 7AAD^−, CD45^+, CD11c^+, MHCII^+for flow cytometric sorting. Goblet cells were identified as CD45^−, CD24^−CK18^+, UEA-I^+for flow cytometric sorting as previously described. For intracellular antigens and cytokines, cells were fixed and permeabilized overnight and stained per the manufacturers recommendations (eBioscience). Flow cytometry was performed with a FACScan cytometer (BD Biosciences, San Jose, Calif.) retrofitted with additional lasers. Data acquisition was performed using CellQuest (BD Biosciences) and Rainbow (Cytek,Fremont, Calif.) or FlowJo software (Tree Star, Ashland, OR). Data analysis was performed on a Macintosh computer running FlowJo software.
Treatments to alter GAPs: Acute induction or inhibition of GAPs was performed as previously described. Mice were given 500 μg/kg tyrphostin AG1478 i.p. to inhibit of EGFR activation, 10 mg/kg U0126 i.p. to inhibit MAPK/ERK (MEK1/MEK2) activation, 150 μg/kg carbamylcholine (acetycholine analogue) i.p., 100 mg/kg tropicamide (mAChR4 selective antagonist) i.p., 1 μg recombinant murine EGF (Shenandoah) in 20 μl PBS intracolonic, 10 μg LPS intraluminally, or 100 μl stomach contents from a DOL10 mice intraluminally, or 100 μl heat killed cecal contents from SPF housed adult mice intraluminally. Reagents from Sigma Aldrich, St. Louis, Mo. unless otherwise noted.
Adoptive T cell Transfer: 10^5 splenic CD4^+ T cells from CD45.1 CBir1 TCR transgenic mice, CD45.1+ DP1 TCR transgenic mice, or CD45.1+ OTII TCR transgenic mouse were enriched by magnetic particles (Stemcell Technology, #19752 Vancouver, British Columbia, Canada) and injected i.v. into mice. In some experiments cells were labeled with CFSE prior to injection, and MLNs of recipient mice were analyzed three days posts transfer. Mice were analyzed seven days posts transfer to evaluate the presence of the transferred population in the LP. In some experiments, in FIG. 34, FIG. 37, and FIG. 39, cells were transferred on DOL 16, and analyzed on DOL 30 or after 8 days of DSS treatment on DOL 38.

[3] = tested on: colon draining MLN; assay: MLN culture cytokines and colon H/E histology on DOL35; type: in vivo; details: DOL35 mice; for colon pathology (H/E sections): EGFRi DOL14 and 16 or DOL24 and 26, intracolonic EGF DOL10-21
Description: as §1
Measurement of cytokines, EGF, and immunoglobulins: Cytokines and EGF were measured using the using ELISAs for EGF (R&D systems), phosphorylated MAPK, phosphorylated EGFR, IL17 (eBioscience), IFNγ and IL-10, (R&D systems) per the manufacturers recommendations. Luminal EGF was measured in stomach, SI, and colonic contents; to isolate contents the stomach was opened and contents was added to 1 ml PBS. […] Phosphorylated MAPK, and phosphorylated EGFR was measured on epithelial cells from the SI or colon isolated by one 15 minute wash with HBSS+EDTA as described above. Cytokines were measured on supernatants from cultured MLNs.

[4] = intracolonic EGF DOL10-21, transfer DOL16
[5] = dietary Ova DOL 0-30, EGFRi DOL 6 and 8 or DOL 24 and 26
[6] = EGFR inhibitors on DOL24 and 26 post-weaning

Compound | tolerance to luminal Ova (DTH, footpad thickness) ([1]; Ova enemas with EGF every other day DOL 14-22 (post-neonatal phase colon)) | Foxp3 expression of transferred CBir1 T cells on DOL30 [2, 4] | expansion of transferred CBir1 T cells in colon LP on DOL30 [2, 4] | inflammatory cytokine expression (IL-17, TNFα, IFNγ) of CBir1 T cells on DOL30 ([2]; intracolonic EGF DOL10-21, vs PBS treated control mice) | expansion of CBir1 cells in the colon draining MLN three days post transfer ([2]; post-neonatal mice, intracolonic recombinant EGF (1 μg daily DOL10-21)) | colon pathology (H/E sections) [3] | lethargy/hypothermia upon rechallenge with sterile Ova in the footpad [1, 5] | oral tolerance (footpad swelling upon Ova rechallenge) [1, 5] | lethargy/hypothermia upon rechallenge with sterile Ova in the footpad ([1]; dietary Ova DOL 0-30, EGFRi DOL 6 and 8 or DOL 24 and 26, listed as inhibitor of EGFR activation) | Foxp3 expression of transferred CBir1 T cells on DOL30 [2, 6] | inflammatory cytokine expression of CBir1 T cells on DOL30 [2, 6] | Foxp3 expression of CBir1 and DP1 T cells in colon LP seven days post transfer ([2]; antigen encounter post-weaning, DOL28, under EGFR inhibition) | Foxp3 and inflammatory cytokine expression of transferred CBir1 T cells on DOL30 ([2]; inhibition of EGFR on DOL14 and 16 (post-neonatal phase), vs controls) | expansion of transferred CBir1 T cells in colon LP on DOL30 ([2]; inhibition of EGFR on DOL14 and 16 or on DOL24 and 26) | expansion and activation of transferred CBir1 or DP1 cells in the MLN ([2]; post-weaning mice (DOL28), three days after transfer) | inflammatory cytokine production in the colon draining MLN ([3]; EGFRi post-weaning (DOL24 and 26))
EGF: recombinant murine EGF (Shenandoah); EGFR ligand, given luminally or intracolonically | abrogated tolerance to luminal Ova; also recorded: attenuates tolerance to a luminal antigen | significantly less Foxp3 | significantly less expansion | significantly larger proportion of the remaining CBir1 T cell population expressed inflammatory cytokines | failed to expand | no overt pathology |  |  |  |  |  |  |  |  |  | 
COc1cc2ncnc(Nc3cccc(Cl)c3)c2cc1OC [EGFRi, tyrphostin AG1478] |  |  |  |  |  | does not induce overt pathologic changes | lethargic and hypothermic | significantly abrogated | developed hypothermia | significantly less Foxp3 | significantly greater proportion of the population expressed inflammatory cytokines | little Foxp3 expression | no significant difference in the expression of Foxp3+ or inflammatory cytokines | did not affect the expansion of transferred CBir1 T cells | allowed adoptively transferred CBir1 or DP1 cells to expand and become activated | results in inflammatory cytokine production in the colon draining MLN

— patent publication US11241480B2, “Methods for modulation of dietary and microbial exposure with compositions comprising an EGFR ligand” (Washington University, priority 2017, dated 2022)
